Results from patent US20240252474A1, “METHODS AND COMPOSITIONS COMPRISING A CARDIO-TOLERATED HDAC INHIBITOR” (HUYABIO International, LLC, priority 2023, published 2024).
Where “and” joins values, the source holds several entries; their conditions need not be identical. Equal values may be shown once. Read-outs that look alike come from different tables or passages of the source.

How the values were obtained:
[1] = tested on: electrocardiogram (ECG) QT interval; experiment: 12-lead Holter ECG (QTcF, heart rate) and concentration-QT modeling; format: in vivo; conditions: for median ΔQTcF across time points: C1D1, up to 4 hours post dose
Procedure: In conjunction with the pharmacokinetic analysis, Holter monitors were used to record 12-lead continuous digital ECGs (under controlled conditions to minimize digital noise) on a baseline day (within 1-7 days prior to C1D1) and on C1D1 (Phase 1b only). Triplicate 10-second ECGs were extracted from the Holter flashcard at matched time-points on the baseline day and on C1D1 at pre-dose (0.5 hr prior to breakfast), and up to 4 hours post-dose. The PR, QRS, RR, and QT intervals were analyzed by a central ECG laboratory. Mealtimes (breakfast) were standardized across both days. The measured QT data were corrected for heart rate using the Fridericia correction (QTcF). • QTcF was calculated using the formula: Fridericia: QTcFri=QT/(RR)^1/3 (Fridericia L S. Die systolendauer im elektrokardiogramm bei normalenmenschen und bei herzkranken. Acta Med Scand. 1920; 53:469-486).
(§1) Non-compartmental PK analysis for HBI-8000 was conducted in Phase 1b using serial plasma concentration data collected up to 24 hours post-dose for the first (Cycle 1 Day 1; C1D1) dose and up to 7 hours post-dose for the ninth (C2D1) dose of HBI-8000. In conjunction with PK, Holter monitors were used to record 12-lead continuous digital ECGs (under controlled conditions to minimize digital noise) on a baseline day (within 1-7 days prior to C1D1) and on C1D1 (Phase 1b only). Triplicate 10-second ECGs were extracted from the Holter flashcard at matched time-points on the baseline day and on C1D1 up to 4 hours post-dose and the PR, QRS, RR, and QT intervals were analyzed by a Central ECG Laboratory. Meal-times (breakfast) were standardized across both days and occurred after or ≥1 hour before the scheduled extraction times for triplicate ECGs. The measured QT data were corrected for heart rate using Fridericia (QTcF).

[2] = Non-compartmental PK analysis of HBI-8000 plasma concentrations; format: in vivo, human; conditions: for AUC0-7/D / AUC0-24/D / Cmax/D / CPre/D: dose-normalized; for AUC from 0 to 7 h post-dose: read-out: AUC0-7; for AUC(0-t): read-out: AUC0-24
Excerpt: Statistical analyses of safety, tolerability, and anti-tumor activity were primarily descriptive in nature. Toxicities were tabulated by type and grade. The safety population included all patients who received ≥1 dose of HBI-8000 and nivolumab. Continuous variables were summarized using descriptive statistics and categorical variables were summarized with number and percentage at each category. Pharmacokinetic parameters were derived using noncompartmental methods with Phoenix® WinNonlin® Version 6.4 (Certara, L. P., Princeton, NJ, USA).
as §1

[3] = 20 mg, n = 2, individual values
[4] = C1D1, 20 mg, n = 3, geometric mean
[5] = C1D1, 30 mg, n = 7, geometric mean
[6] = C1D1, 40 mg, n = 7, geometric mean
[7] = C2D1, 20 mg, n = 2, individual values
[8] = C2D1, 30 mg, n = 3, geometric mean
[9] = C2D1, 40 mg, n = 4, geometric mean
[10] = human, plasma, oral, 20 mg, C1D1, 20 mg, n = 3, geometric mean
[11] = human, plasma, oral, 30 mg, C1D1, 30 mg, n = 7, geometric mean

Compound: Nc1cc(F)ccc1NC(=O)c1ccc(CNC(=O)/C=C/c2cccnc2)cc1 [HBI-8000, N-(2-amino-4-fluorophenyl)-4-[[[(2E)-1-oxo-3-(3-pyridinyl)-2-propen-1-yl]amino]methyl]benzamide]
- median ΔQTcF across time points ([1]; 30 mg dose): 0 to −1.5 ms
- highest median decrease in QTcF ([1]; 40 mg dose, 4 hours post dose): -11.5 ms
- median ΔQTcF across time points ([1]; 40 mg dose): −3.0 to −11.5 ms
- mean upper 90% confidence limits of model-predicted ΔQTcF ([1]; 20, 30 and 40 mg doses, threshold 10 ms): −1.1 to −2.8 ms
- QTcF values ([1]; all patients, 20-40 mg): ≤ 450 ms
- ΔQTcF values ([1]; all patients, 20-40 mg): ≤ 30 ms
- Effect on QTcF (conclusion) ([1]; at the doses and regimen administered): did not prolong QTcF
- change from baseline ventricular heart rate ([1]; single dose 20, 30 or 40 mg on C1D1, 0 to 4 hour): remained essentially stable
- median plasma concentration at 4 hours, lower than Cmax by ([2]; 20 mg dose): 17%
- AUC0-7 Ratio (C2D1/C1D1) [2, 3]: 0.69 and 1.99
- Cmax Ratio (C2D1/C1D1) [2, 3]: 1.06 and 1.80
- median plasma concentration at 4 hours, lower than Cmax by ([2]; 30 mg dose): 19%
- AUC0-7 Ratio (C2D1/C1D1) ([2]; 30 mg, n = 3, geometric mean): 1.37
- Cmax Ratio (C2D1/C1D1) ([2]; 30 mg, n = 3, geometric mean): 1.08
- AUC0-7 Ratio (C2D1/C1D1) ([2]; 40 mg, n = 3, geometric mean): 1.36
- Cmax Ratio (C2D1/C1D1) ([2]; 40 mg, n = 4, geometric mean): 1.18
- median plasma concentration at 4 hours, lower than Cmax by ([2]; 40-mg dose): 15%
- Accumulation, first versus ninth dose ([2]; BIW dosing, C1D1 vs C2D1): No significant accumulation
- Cmax ([2]; C1D1, 20 mg oral, n = 3, geometric mean): 104.9 ng/mL
- AUC0-7/D [2, 4]: 19.2 ng·h/mL/mg
- AUC0-24/D [2, 4]: 79.5 ng·h/mL/mg
- Cmax/D [2, 4]: 5.24 ng/mL/mg
- Cmax ([2]; C1D1, 30 mg oral, n = 7, geometric mean): 117.6 ng/mL
- AUC0-7/D [2, 5]: 11.4 ng·h/mL/mg
- AUC0-24/D [2, 5]: 57.8 ng·h/mL/mg
- Cmax/D [2, 5]: 3.92 ng/mL/mg
- Cmax ([2]; C1D1, 40 mg oral, n = 7, geometric mean): 259.3 ng/mL
- AUC0-7/D ([2]; C1D1, 40 mg, n = 6, geometric mean): 24.3 ng·h/mL/mg
- AUC0-24/D [2, 6]: 92.2 ng·h/mL/mg
- Cmax/D [2, 6]: 6.49 ng/mL/mg
- Cmax ([2]; C2D1, 20 mg BIW, n = 2, individual values): 83.1 ng/mL and 182 ng/mL
- AUC0-7 [2, 7]: 250 ng·h/mL and 728 ng·h/mL
- CPre (pre-dose trough concentration) [2, 7]: 4.76 ng/mL and 4.79 ng/mL
- Tmax [2, 7]: 3.0 h
- AUC0-7/D [2, 7]: 12.5 ng·h/mL/mg and 36.4 ng·h/mL/mg
- CPre/D [2, 7]: 0.238 ng/mL/mg and 0.240 ng/mL/mg
- Cmax/D [2, 7]: 4.16 ng/mL/mg and 9.10 ng/mL/mg
- CPre (pre-dose trough concentration) [2, 8]: 16.1 ng/mL
- AUC0-7/D [2, 8]: 13.1 ng·h/mL/mg
- CPre/D [2, 8]: 0.536 ng/mL/mg
- Cmax/D [2, 8]: 3.76 ng/mL/mg
- CPre (pre-dose trough concentration) [2, 9]: 14.2 ng/mL
- AUC0-7/D [2, 9]: 23.2 ng·h/mL/mg
- CPre/D [2, 9]: 0.356 ng/mL/mg
- Cmax/D [2, 9]: 5.73 ng/mL/mg
- AUC from 0 to 7 h post-dose [2, 10]: 384 ng·h/mL
- AUC(0-t) [2, 10]: 1590 ng·h/mL
- Tmax ([2]; human, plasma, oral, 20 mg, C1D1, 20 mg, n = 3, median, read-out: tmax): 6.6 h
- AUC from 0 to 7 h post-dose [2, 11]: 342 ng·h/mL
- AUC(0-t) [2, 11]: 1730 ng·h/mL
- Tmax ([2]; human, plasma, oral, 30 mg, C1D1, 30 mg, n = 7, median, read-out: tmax): 6.5 h
- Cmax ([2]; human, plasma, oral, 30 mg, C2D1, 30 mg BIW, n = 3, geometric mean, read-out: Cmax): 113 ng/mL
- AUC from 0 to 7 h post-dose ([2]; human, plasma, oral, 30 mg, C2D1, 30 mg, n = 3, geometric mean): 392 ng·h/mL
- Tmax ([2]; human, plasma, oral, 30 mg, C2D1, 30 mg, n = 3, median, read-out: tmax): 6.7 h
- AUC from 0 to 7 h post-dose ([2]; human, plasma, oral, 40 mg, C1D1, 40 mg, n = 6, geometric mean): 973 ng·h/mL
- AUC(0-t) ([2]; human, plasma, oral, 40 mg, C1D1, 40 mg, n = 7, geometric mean): 3690 ng·h/mL
- Tmax ([2]; human, plasma, oral, 40 mg, C1D1, 40 mg, n = 7, median, read-out: tmax): 4.8 h
- Cmax ([2]; human, plasma, oral, 40 mg, C2D1, 40 mg BIW, n = 4, geometric mean, read-out: Cmax): 229 ng/mL
- AUC from 0 to 7 h post-dose ([2]; human, plasma, oral, 40 mg, C2D1, 40 mg, n = 4, geometric mean): 929 ng·h/mL
- Tmax ([2]; human, plasma, oral, 40 mg, C2D1, 40 mg, n = 4, median, read-out: tmax): 6.8 h
- Tmax ([2]; human, plasma, oral, 40 mg, range across 20, 30 and 40 mg BIW dose cohorts, post dose, read-out: median time to peak plasma concentration (tmax)): 5 to 7 h
- Cmax ([2]; human, plasma, po, 20 mg, C1D1, 20 mg oral, n = 3, geometric mean, read-out: Cmax): 105 ng/mL
- Cmax ([2]; human, plasma, po, 30 mg, C1D1, 30 mg oral, n = 7, geometric mean, read-out: Cmax): 118 ng/mL
- Cmax ([2]; human, plasma, po, 40 mg, C1D1, 40 mg oral, n = 7, geometric mean, read-out: Cmax): 259 ng/mL
